In ChEMBL document CHEMBL1671653, “GT-1a or GT-1b subtype-specific resistance profiles for hepatitis C virus inhibitors telaprevir and HCV-796” (Antimicrob Agents Chemother, 2009):

Experiments:
Format in all cases: functional, organism-based, Hepacivirus hominis
[1] = test system: Hepatitis C virus; experiment: Antiviral activity against Hepatitis C virus GT-1a harboring wild type NS5B polymerase
[2] = test system: Hepatitis C virus; experiment: Antiviral activity against Hepatitis C virus GT-1a harboring NS5B polymerase M414T mutant gene
[3] = test system: Hepatitis C virus; experiment: Antiviral activity against Hepatitis C virus GT-1a harboring NS5B polymerase C316Y mutant gene
[4] = test system: Hepatitis C virus; experiment: Antiviral activity against Hepatitis C virus GT-1b assessed as inhibition of HCV replicon-encoded Renilla luciferase reporter activity after 3 days; conditions: 72 h
[5] = test system: Hepatitis C virus; experiment: Antiviral activity against Hepatitis C virus GT-1a harboring NS5B polymerase C316Y/L392F mutant gene
[6] = test system: Hepatitis C virus; experiment: Antiviral activity against Hepatitis C virus GT-1a harboring NS5B polymerase L392F mutant gene
[7] = test system: Hepatitis C virus; experiment: Antiviral activity against Hepatitis C virus GT-1a harboring NS5B polymerase L392F/M414T mutant gene
[8] = test system: Hepatitis C virus; experiment: Antiviral activity against Hepatitis C virus GT-1a harboring NS5B polymerase C316Y/M414T mutant gene
[9] = test system: Hepatitis C virus; experiment: Antiviral activity against Hepatitis C virus GT-1b harboring NS5B polymerase C316Y mutant gene relative to wild type
[10] = test system: Hepatitis C virus; experiment: Antiviral activity against Hepatitis C virus GT-1b harboring wild type NS5B polymerase
[11] = test system: Hepatitis C virus; experiment: Antiviral activity against Hepatitis C virus GT-1a assessed as inhibition of HCV replicon-encoded Renilla luciferase reporter activity after 3 days; conditions: 72 h

| Compound | EC50 [1] | EC50 [2] | EC50 [3] | EC50 [4] | EC50 [5] | EC50 [6] | EC50 [7] | EC50 [8] | EC50 [9] | EC50 [10] | EC50 [11] |
| --- | --- | --- | --- | --- | --- | --- | --- | --- | --- | --- | --- |
| CNC(=O)c1c(-c2ccc(F)cc2)oc2cc(N(CCO)S(C)(=O)=O)c(C3CC3)cc12 [NESBUVIR] | 4 nM | 7 nM | 1700 nM | 17 nM | 3200 nM | 8 nM | 22 nM | 2800 nM | 6 nM | 6 nM |  |
| CCC[C@H](NC(=O)[C@@H]1[C@H]2CCC[C@H]2CN1C(=O)[C@@H](NC(=O)[C@@H](NC(=O)c1cnccn1)C1CCCCC1)C(C)(C)C)C(=O)C(=O)NC1CC1 [TELAPREVIR] |  |  |  | 560 nM |  |  |  |  |  |  | 500 nM |
